According to article PMC7501296, “Rapid and direct control of target protein levels with VHL-recruiting dTAG molecules” (Nature Communications, 2020):
Where “and” joins values, the source holds several entries; their conditions need not be identical. Identical values can stand only once.

How the values were obtained:
Type in all cases: cell-based
[1] = biological target: T1, FKBP12^F36V-Nluc (Homo sapiens, UniProt P62942, F37V); assay: FKBP12F36V-Nluc dual luciferase assay (293FT); settings: 293FT FKBP12F36V-Nluc, 24 h
T1 construct: expressed in transfected cells; host or cells: 293FT
Protocol: (§1) Dual luciferase assays were performed using 293FT FKBP12^WT-Nluc and FKBP12^F36V-Nluc cells. In brief, cells were plated at 2000 cells per well in 20 µL of appropriate media in 384-well white culture plates (Corning), allowed to adhere overnight, and 100 nL of compounds were added using a Janus Workstation pin tool (PerkinElmer) for 24 h at 37 °C. To evaluate Fluc signal, plates were brought to room temperature, 20 µL of Dual-Glo Reagent (Promega) was added for 10 min and luminescence was measured on an Envision 2104 plate reader (PerkinElmer). Subsequently, 20 µL of Dual-Glo Stop & Glo Reagent (Promega) was added for 10 min and luminescence was again measured to capture Nluc signal. DMSO-normalized ratios of Nluc/Fluc signal was analyzed and plotted using GraphPad PRISM v8[6].

[2] = test system: PATU-8902 FKBP12^F36V-KRAS^G12V; KRAS^-/- clone; assay: Antiproliferation, PATU-8902 FKBP12F36V-KRASG12V; KRAS-/- clone, 3D-spheroid (CellTiter-Glo); settings: FKBP12F36V-KRASG12V, KRAS-/-, 3D-spheroid, replicate values
Protocol: (§2) Cell viability was assayed in 2D-adherent or ultra-low adherent 3D-spheroids using CellTiter-Glo (Promega)[6],[15]. Luminescence was measured on an Envision 2104 plate reader (PerkinElmer) and Fluostar Omega Reader (BMG Labtech) and data was analyzed using GraphPad PRISM v8. Synergy assessments were performed using CellTiter-Glo (Promega) with the following modifications to the protocol described in the ref. [34]. In brief, EWS502 cells were plated at 1000 cells per well in 50 µL of appropriate media in 384-well white culture plates (Corning) allowed to adhere overnight, and 100 nL of compounds were added using a Janus Workstation pin tool (PerkinElmer) for 72 h. Cell viability was measured by addition of 10 µL of CellTiter-glo (Promega), followed by incubation for 15 minutes at room temperature. Luminescence was measured on an Envision 2104 plate reader (PerkinElmer) and data was analyzed using GraphPad PRISM v8.

[3] = test system: PATU-8902 LACZ-FKBP12^F36V clone; assay: Antiproliferation, PATU-8902 LACZ-FKBP12F36V clone, 2D-monolayer (CellTiter-Glo)
Protocol: as §2

[4] = test system: PATU-8902 FKBP12^F36V-KRAS^G12V; KRAS^-/- clone; assay: Antiproliferation, PATU-8902 FKBP12F36V-KRASG12V; KRAS-/- clone, 2D-monolayer (CellTiter-Glo)
Protocol: as §2

[5] = test system: PATU-8902 LACZ-FKBP12^F36V clone; assay: Antiproliferation, PATU-8902 LACZ-FKBP12F36V clone, 3D-spheroid (CellTiter-Glo)
Protocol: as §2

[6] = biological target: T2, FKBP12^WT-Nluc (Homo sapiens, UniProt P62942); assay: FKBP12WT-Nluc dual luciferase assay (293FT); settings: 293FT FKBP12WT-Nluc, 24 h
T2 construct: expressed in transfected cells; host or cells: 293FT
Protocol: as §1

[7] = log10[compound] (M) -5.30103, single replicates
[8] = log10[compound] (M) -5.80103, single replicates
[9] = log10[compound] (M) -6.30103, single replicates
[10] = log10[compound] (M) -6.80103, single replicates
[11] = log10[compound] (M) -7.30103, single replicates
[12] = log10[compound] (M) -7.80103, single replicates
[13] = log10[compound] (M) -8.30103, single replicates
[14] = log10[compound] (M) -8.80103, single replicates
[15] = log10[compound] (M) -9.30103, single replicates
[16] = log10[compound] (M) -9.80103, single replicates
[17] = log10[compound] (M) -5.69897, replicate values
[18] = log10[compound] (M) -6.19897, replicate values
[19] = log10[compound] (M) -6.69897, replicate values
[20] = log10[compound] (M) -7.19897, replicate values
[21] = log10[compound] (M) -7.69897, replicate values
[22] = log10[compound] (M) -8.19897, replicate values
[23] = log10[compound] (M) -8.69897, replicate values
[24] = log10[compound] (M) -9.19897, replicate values
[25] = log10[compound] (M) -9.69897, replicate values
[26] = log10[compound] (M) -10.199, replicate values

T1 sequence (P62942 2-108 F37V limits assumed): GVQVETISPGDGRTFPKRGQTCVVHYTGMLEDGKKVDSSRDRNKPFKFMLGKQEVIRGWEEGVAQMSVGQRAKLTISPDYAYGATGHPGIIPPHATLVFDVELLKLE
T2 sequence (P62942 2-108 limits assumed): as the sequence (P62942 2-108 F37V limits assumed) above, with V36F counted along it

CC[C@H](C(=O)N1CCCC[C@H]1C(=O)O[C@H](CCc1ccc(OC)c(OC)c1)c1ccccc1OCC(=O)NCCCCCCOc1cccc2c1C(=O)N(C1CCC(=O)N(C)C1=O)C2=O)c1cc(OC)c(OC)c(OC)c1 (stereo partly drawn) [dTAG-13-NEG]
DMSO-normalized ratio of Nluc/Fluc signal [1, 7]: 107.485 and 132.51 and 146.194 and 142.752
DMSO-normalized ratio of Nluc/Fluc signal [1, 8]: 129.127 and 105.072 and 162.6 and 136.425
DMSO-normalized ratio of Nluc/Fluc signal [1, 9]: 79.0888 and 120.578 and 92.5034 and 88.448
DMSO-normalized ratio of Nluc/Fluc signal [1, 10]: 88.2422 and 88.8583 and 65.8176 and 62.4888
DMSO-normalized ratio of Nluc/Fluc signal [1, 11]: 134.755 and 99.5368 and 72.6182 and 68.5345
DMSO-normalized ratio of Nluc/Fluc signal [1, 12]: 97.7941 and 97.6227 and 54.6259 and 65.8847
DMSO-normalized ratio of Nluc/Fluc signal [1, 13]: 87.9478 and 99.3529 and 98.1344 and 118.766
DMSO-normalized ratio of Nluc/Fluc signal [1, 14]: 97.4127 and 84.7262 and 88.2477 and 92.5526
DMSO-normalized ratio of Nluc/Fluc signal [1, 15]: 102.465 and 92.5515 and 101.177 and 79.93
DMSO-normalized ratio of Nluc/Fluc signal [1, 16]: 77.6015 and 76.7835 and 70.5544 and 62.7116
DMSO-normalized antiproliferation ([2]; log10[compound] (M) -5.69897): 96.8823 and 98.3914 and 98.1687 and 89.6654
DMSO-normalized antiproliferation ([2]; log10[compound] (M) -6.19897): 105.48 and 122.576 and 96.899 and 128.406
DMSO-normalized antiproliferation ([2]; log10[compound] (M) -6.69897): 114.368 and 120.61 and 116.857 and 110.62
DMSO-normalized antiproliferation ([2]; log10[compound] (M) -7.19897): 96.9046 and 91.4307 and 93.53 and 114.106
DMSO-normalized antiproliferation ([2]; log10[compound] (M) -7.69897): 103.386 and 104.261 and 89.7267 and 101.721
DMSO-normalized antiproliferation ([2]; log10[compound] (M) -8.19897): 101.449 and 95.4289 and 118.555 and 115.899
DMSO-normalized antiproliferation ([2]; log10[compound] (M) -8.69897): 120.176 and 108.237 and 116.378 and 119.908
DMSO-normalized antiproliferation ([2]; log10[compound] (M) -9.19897): 94.538 and 95.4846 and 105.848 and 104.818
DMSO-normalized antiproliferation ([2]; log10[compound] (M) -9.69897): 83.4954 and 97.4225 and 109.1 and 101.059
DMSO-normalized antiproliferation ([2]; log10[compound] (M) -10.199): 96.7821 and 78.8679 and 98.5696 and 88.8079
DMSO-normalized antiproliferation [3, 17]: 72.8225 and 72.1303 and 101.197 and 90.2175
DMSO-normalized antiproliferation [3, 18]: 131.635 and 91.018 and 75.6842 and 106.809
DMSO-normalized antiproliferation [3, 19]: 122.78 and 97.8706 and 155.447 and 120.938
DMSO-normalized antiproliferation [3, 20]: 130.888 and 102.417 and 116.74 and 117.366
DMSO-normalized antiproliferation [3, 21]: 130.608 and 108.743 and 109.209 and 155.426
DMSO-normalized antiproliferation [3, 22]: 126.2 and 112.564 and 135.746 and 163.91
DMSO-normalized antiproliferation [3, 23]: 114.853 and 118.921 and 108.594 and 114.639
DMSO-normalized antiproliferation [3, 24]: 149.935 and 111.753 and 119.231 and 88.5759
DMSO-normalized antiproliferation [3, 25]: 130.478 and 106.921 and 102.092 and 104.28
DMSO-normalized antiproliferation [3, 26]: 146.921 and 153.043 and 111.382 and 113.309
DMSO-normalized antiproliferation [4, 17]: 50.9912 and 75.2013 and 73.3197 and 81.1372
DMSO-normalized antiproliferation [4, 18]: 68.0095 and 98.7671 and 119.504 and 100.111
DMSO-normalized antiproliferation [4, 19]: 129.938 and 93.0967 and 131.778 and 96.6262
DMSO-normalized antiproliferation [4, 20]: 111.6 and 154.459 and 120.786 and 146.95
DMSO-normalized antiproliferation [4, 21]: 99.1211 and 134.569 and 105.935 and 133.398
DMSO-normalized antiproliferation [4, 22]: 121.063 and 109.153 and 96.3979 and 125.341
DMSO-normalized antiproliferation [4, 23]: 116.243 and 134.344 and 103.587 and 114.006
DMSO-normalized antiproliferation [4, 24]: 75.2314 and 130.564 and 98.3202 and 135.021
DMSO-normalized antiproliferation [4, 25]: 119.764 and 98.922 and 106.747 and 99.1636
DMSO-normalized antiproliferation [4, 26]: 97.9582 and 111.563 and 110.426 and 109.944
DMSO-normalized antiproliferation [5, 17]: 78.2662 and 80.6112 and 107.636 and 101.511
DMSO-normalized antiproliferation [5, 18]: 115.881 and 119.912 and 109.909 and 110.138
DMSO-normalized antiproliferation [5, 19]: 134.032 and 111.738 and 124.289 and 133.898
DMSO-normalized antiproliferation [5, 20]: 111.46 and 97.6141 and 114.554 and 105.672
DMSO-normalized antiproliferation [5, 21]: 122.388 and 133.597 and 106.246 and 144.762
DMSO-normalized antiproliferation [5, 22]: 120.684 and 101.999 and 116.106 and 132.987
DMSO-normalized antiproliferation [5, 23]: 123.405 and 123.822 and 121.356 and 113.012
DMSO-normalized antiproliferation [5, 24]: 108.263 and 109.792 and 100.309 and 162.971
DMSO-normalized antiproliferation [5, 25]: 109.842 and 96.251 and 145.82 and 104.761
DMSO-normalized antiproliferation [5, 26]: 93.2647 and 77.5801 and 110.815 and 107.241
DMSO-normalized ratio of Nluc/Fluc signal [6, 7]: 67.0666 and 77.8998 and 91.6821 and 102.898
DMSO-normalized ratio of Nluc/Fluc signal [6, 8]: 78.9348 and 111.471 and 83.3725 and 82.7897
DMSO-normalized ratio of Nluc/Fluc signal [6, 9]: 92.3022 and 94.9354 and 69.2394 and 97.8278
DMSO-normalized ratio of Nluc/Fluc signal [6, 10]: 96.006 and 100.644 and 74.9876 and 76.7216
DMSO-normalized ratio of Nluc/Fluc signal [6, 11]: 72.8244 and 95.6646 and 99.6579 and 99.4332
DMSO-normalized ratio of Nluc/Fluc signal [6, 12]: 97.6563 and 103.416 and 111.647 and 107.58
DMSO-normalized ratio of Nluc/Fluc signal [6, 13]: 72.1292 and 95.3278 and 119.638 and 97.0458
DMSO-normalized ratio of Nluc/Fluc signal [6, 14]: 78.9909 and 117.088 and 62.8565 and 76.9455
DMSO-normalized ratio of Nluc/Fluc signal [6, 15]: 119.218 and 128.013 and 101.879 and 100.194
DMSO-normalized ratio of Nluc/Fluc signal [6, 16]: 65.6358 and 99.3457 and 89.3391 and 80.9056
